Measured values: the NIST ThermoML archive (doi:10.1021/je030167i)

Tests used:
[1] = xn = mol fraction of the nth substance listed; conditions: 101.3 kPa, Liquid
[2] = 101.3 kPa, Liquid

CC1CCCO1 (centres undefined) [2-methyltetrahydrofuran] + CCCCCl
[1]
Conditions	kinematic viscosity, 298.15 K [m2/s]	kinematic viscosity, 313.15 K [m2/s]	mass density, 298.15 K [kg/m3]	mass density, 313.15 K [kg/m3]
x2 = 0	5.59e-07	4.92e-07	849.28	834.01
x2 = 0.0494	5.56e-07	4.88e-07	850.97	835.48
x2 = 0.1008	5.52e-07	4.85e-07	852.97	837.19
x2 = 0.203	5.43e-07	4.78e-07	856.41	840.52
x2 = 0.3004	5.35e-07	4.71e-07	859.76	843.74
x2 = 0.3963	5.27e-07	4.64e-07	862.73	846.73
x2 = 0.4969	5.18e-07	4.56e-07	865.86	849.69
x2 = 0.5976	5.09e-07	4.49e-07	869.09	852.75
x2 = 0.6993	5.01e-07	4.41e-07	872.11	855.69
x2 = 0.7993	4.93e-07	4.34e-07	874.9	858.36
x2 = 0.8988	4.85e-07	4.27e-07	878.01	861.05
x2 = 0.9483	4.82e-07	4.24e-07	879.23	862.56

CC1CCCO1 (centres undefined) [2-methyltetrahydrofuran] + CC(C)CCl
[1], x2 = 0
Conditions	kinematic viscosity [m2/s]	mass density [kg/m3]
298.15 K	5.59e-07	849.28
313.15 K	4.92e-07	834.01

CC(C)(C)O [2-methylpropan-2-ol]
[2]
Conditions	kinematic viscosity [m2/s]	mass density [kg/m3]
298.15 K	5.59e-06	780.67
313.15 K	2.74e-06	765.33

CC(C)(C)Cl [2-chloro-2-methylpropane] + CC1CCCO1
[1], 298.15 K
Conditions	kinematic viscosity [m2/s]	mass density [kg/m3]
x1 = 0.0481	5.59e-07	849.09
x1 = 0.0972	5.57e-07	848.97
x1 = 0.196	5.55e-07	848.4
x1 = 0.2907	5.55e-07	847.61
x1 = 0.3874	5.54e-07	846.54
x1 = 0.4878	5.54e-07	845.21
x1 = 0.5888	5.55e-07	843.72
x1 = 0.7	5.57e-07	842.04
x1 = 0.7912	5.59e-07	840.61
x1 = 0.8945	5.62e-07	838.65
x1 = 0.9474	5.63e-07	837.24
x1 = 1	5.66e-07	835.75

CC(C)(C)O [2-methylpropan-2-ol] + CC1CCCO1
[1], x1 = 1
Conditions	kinematic viscosity [m2/s]	mass density [kg/m3]
298.15 K	5.59e-06	780.67
313.15 K	2.74e-06	765.33
